Here are results for 8 compounds from patent US20090325904A1, “MALEIC ACID MONOSALT OF ANTIVIRAL AGENT AND PHARMACEUTICAL COMPOSITION CONTAINING THE SAME” (LG Life Sciences Ltd., priority 2007, published 2009).

Converted amounts (≈) assume the structure as drawn. Where two headings read alike, the source gives them in different places.

Data set [1] can be described thus: Stability under heat and moisture, 40°C/75% RH (residual content by HPLC). It counts as physicochemical. How it is done: (§1) Contents of the free base of 3-[({1-[(2-amino-9H-purin-9-yl)methyl]cyclopropyl}oxy)methyl]-8,8-dimethyl-3,7-dioxo-2,4,6-trioxa-3λ5-phosphanon-1-yl-pivalate and salts thereof were measured by high performance liquid chromatography (HPLC). The specific measuring conditions are fisted below:
After 1, 4 and 8 weeks, 5 mg of each sample was taken, dissolved in a solvent mixture of tetrahydrofuran/water (1/1, v/v), and analyzed by HPLC.

The nature of data set [2]: Stability at 60°C (residual content by HPLC). As to conditions: for residual content: 60°C (about 4% RH). On the procedure: as §1
After 1 or 2, 4 and 8 weeks, each sample in the glass vial was taken, dissolved in a solvent mixture of tetrahydrofuran/water (1/1, v/v), and analyzed by HPLC.

Data set [3] is described as follows: Solubility test at various pH. It counts as physicochemical. As to conditions: for solubility at 1.5 h: phosphate buffer / phosphoric acid solution, aqueous buffer, thermodynamic from solid. On the procedure:
5˜23 mg each of the maleic acid monosalt of the Example and the free base of Comparative Example 1 was placed into a glass bottle. 500 μl each of the various phosphate buffer solution and phosphoric acid solution having a specific pH value was added thereto. The glass bottle was placed in water to maintain a constant temperature of 25° C., and the mixture was stirred for 1.5 h. After filtration, the content in the filtrate was analyzed by HPLC, and the pH of the solution was measured. The measured pH values and the solubilities of the maleic acid monosalt and the free base are represented in the following Table 3.

A further data set deals with hepatitis B virus. The data set is described as follows: In vitro anti-HBV activity, HBV DNA by real-time PCR in HepG2.2.15 culture medium. Format: cell-based. How it is done:
(§2) The hepatitis B virus-producing cell line, HepG2.2.15 (M. A. Shels, et al., Proc. Natl. Acad. Sci. USA 84, 1005 (1987)), was cultured in DMEM (Dulbecco's Modified Eagle Media; Life Technologies) containing 10% FBS (Fetal Bovine Serum), 1% ABAM (Antibiotic-Antimycotic) and Geneticin whose final concentration was measured as 400 μg/ml. The cells were cultured to confluency, treated with trypsin, and distributed to 96 well microplate in a density of 2×10^4 cells/well. After 24 h, the medium was changed and the compound treatment was carried out in intervals of 2 days by serially diluting the free base of Comparative Example 1 and the maleic acid monosalt of Example by three fold so that the final concentration was 50 μM to 8 nM in 200 μl of medium. Every test samples were duplicated. After 8 days from the first drug treatment, the culture medium was collected, and the cells were lysed by heating the cells to 100° C. for 10 min. In order to minimize the substances that interfere with the DNA amplification reaction, the culture medium was diluted by ten fold using water. The control group, cell culture medium which was not treated with the drug, was treated in the same manner as the above.
In general terms: Real-time PCR tracks product formation cycle by cycle.

Another data set deals with HepG2.2.15. The data set is described as follows: Cytotoxicity determination (MTT). The conditions noted are these: for cytotoxicity: HepG2.2.15. On the procedure:
as §2
(§3) CC50 value of the drug was determined by removing the medium, adding 100 μl of 0.1 mg/ml MTT (Thiazolyl Blue Tetrazolium Bromide: Sigma) to the residue, dyeing the residue for 2 h at 37° C., adding 100 μl of DMSO (Dimethyl Sulfoxide: Sigma), dissolving the resulting mixture by agitating for 2 h at room temperature, and measuring the absorbance at 540 nm.

A short description of data set [4]: Hygroscopicity (no method described). It counts as physicochemical.
The nature of data set [5]: Cytotoxicity determination (MTT). As to conditions: human. How it is done:
as §2, §3

On to `CC(C)(C)C(=O)OCOP(=O)(COC1(Cn2cnc3cnc(N)nc32)CC1)OCOC(=O)C(C)(C)C.Cc1ccc(S(=O)(=O)O)cc1.Cc1ccc(S(=O)(=O)O)cc1` [Comparative Example 4, 3-[({1-[(2-amino-9H-purin-9-yl)methyl]cyclopropyl}oxy)methyl]-8,8-dimethyl-3,7-dioxo-2,4,6-trioxa-3λ5-phosphanon-1-yl-pivalate p-toluenesulfonic acid disalt], for which the residual content in data set [1] (Week 1), in data set [1] (Week 4) and in data set [1] (Week 8) was 0.0% in each case.

In data set [2] (Week 2), `CC(C)(C)C(=O)OCOP(=O)(COC1(Cn2cnc3cnc(N)nc32)CC1)OCOC(=O)C(C)(C)C.O=S(=O)(O)c1ccc2ccccc2c1` [Comparative Example 6, 3-[({1-[(2-amino-9H-purin-9-yl)methyl]cyclopropyl}oxy)methyl]-8,8-dimethyl-3,7-dioxo-2,4,6-trioxa-3λ5-phosphanon-1-yl-pivalate naphthalenesulfonic acid monosalt] came in with a residual content of 74.7%.

With `CC(C)(C)C(=O)OCOP(=O)(COC1(Cn2cnc3cnc(N)nc32)CC1)OCOC(=O)C(C)(C)C.CCS(=O)(=O)O` [Comparative Example 7, 3-[({1-[(2-amino-9H-purin-9-yl)methyl]cyclopropyl}oxy)methyl]-8,8-dimethyl-3,7-dioxo-2,4,6-trioxa-3λ5-phosphanon-1-yl-pivalate ethanesulfonic acid monosalt], in data set [2] (Week 1), the residual content worked out at 0.4%.

Regarding `CC(C)(C)C(=O)OCOP(=O)(COC1(Cn2cnc3cnc(N)nc32)CC1)OCOC(=O)C(C)(C)C.Cc1ccc(S(=O)(=O)O)cc1` [Comparative Example 3, 3-[({1-[(2-amino-9H-purin-9-yl)methyl]cyclopropyl}oxy)methyl]-8,8-dimethyl-3,7-dioxo-2,4,6-trioxa-3λ5-phosphanon-1-yl-pivalate p-toluenesulfonic acid monosalt], the residual content is given as 96.5% in data set [1] (Week 1) and 71.0% in data set [1] (Week 4).

With `CC(C)(C)C(=O)OCOP(=O)(COC1(Cn2cnc3cnc(N)nc32)CC1)OCOC(=O)C(C)(C)C` [Comparative Example 1, Free Base of 3-[({1-[(2-amino-9H-purin-9-yl)methyl]cyclopropyl}oxy)methyl]-8,8-dimethyl-3,7-dioxo-2,4,6-trioxa-3λ5-phosphanon-1-yl-pivalate], the solubility (usually the concentration that dissolves in the medium under given conditions) in data set [3] (pH 6 or more) is ≤ 1000 µg/mL; in data set [3] (pH of 2 or less), ≥ 36000 µg/mL; in data set [3] (solution pH 2.0, 25°C), 36500 µg/mL (≈ 69.2 mM); in data set [3] (solution pH 3.2, 25°C), 8300 µg/mL (≈ 15.7 mM); in data set [3] (solution pH 4.0, 25°C), 1700 µg/mL (≈ 3.22 mM); in data set [3] (solution pH 6.5, 25°C), 800 µg/mL (≈ 1.52 mM). Also, the EC50 in the data set with hepatitis B virus (HepG2.2.15, 8 days, HBV DNA in culture medium, read-out: EC50) turned out to be 1100 ± 100 nM. Moreover, the residual content in data set [2] (Week 1) is 98.2%; in data set [2] (Week 4), 79.2%; in data set [2] (Week 8), 1.2%; in data set [2] (Week 8, listed as free base) it was “about 1%”; in data set [1] (Week 1) it was 99.0%; in data set [1] (Week 4) it was 91.3%. Moreover, the residual content in data set [1] (Week 8) amounted to 8.4%. Besides, in the data set on HepG2.2.15, the “cytotoxicity” value is “about 7 m M”. The midpoint of cytotoxicity in the data set with HepG2.2.15 (HepG2.2.15, MTT), the CC50, lay at 7900 ± 3000 nM.

For `CC(C)(C)C(=O)OCOP(=O)(COC1(Cn2cnc3cnc(N)nc32)CC1)OCOC(=O)C(C)(C)C.O=C(O)/C=C\C(=O)O.O=C(O)/C=C\C(=O)O.O=C(O)/C=C\C(=O)O` [Comparative Example 2, 3-[({1-[(2-amino-9H-purin-9-yl)methyl]cyclopropyl}oxy)methyl]-8,8-dimethyl-3,7-dioxo-2,4,6-trioxa-3λ5-phosphanon-1-yl-pivalate maleic acid trisalt], the values for the residual content in data set [1] (Week 1), in data set [1] (Week 4) and in data set [1] (Week 8) were 84.4%, 0.0% and 0.0%, respectively.

With `CC(C)(C)C(=O)OCOP(=O)(COC1(Cn2cnc3cnc(N)nc32)CC1)OCOC(=O)C(C)(C)C.O=C(O)/C=C\C(=O)O` [Example, 3-[({1-[(2-amino-9H-purin-9-yl)methyl]cyclopropyl}oxy)methyl]-8,8-dimethyl-3,7-dioxo-2,4,6-trioxa-3λ5-phosphanon-1-yl-pivalate maleic acid monosalt], in data set [4], the hygroscopicity result was “non-hygroscopic”. Besides, the “solubility relative to the free base” value in data set [3] (pH 6.5) is given as “three times higher”. Besides, the solubility at 1.5 h in data set [3] (25 °C, pH range of 2 to 6.5) is 3000 to 7000 µg/mL; in data set [3] (solution pH 2.0, 25°C), 5600 µg/mL; in data set [3] (solution pH 3.2, 25°C) it was 7000 µg/mL; in data set [3] (solution pH 4.0, 25°C), 4200 µg/mL; in data set [3] (solution pH 6.5, 25°C) it was 2900 µg/mL. Besides, the EC50 in the data set with hepatitis B virus (Hepatitis B virus, HepG2.2.15, 192 h) is 1200 ± 300 nM; with hepatitis B virus (Hepatitis B virus, HepG2.2.15, read-out: activity (in vitro, summary in text)) it was ~1000 nM. For the same compound, the residual content came out at 99.4% in data set [2] (Week 1); 99.2% in data set [2] (Week 4); 98.2% in data set [2] (Week 8); 99.4% in data set [1] (Week 1); 99.3% in data set [1] (Week 4); 98.3% in data set [1] (Week 8). Moreover, the “thermal stability (decomposition, in words)” value in data set [2] (60°C, stressed condition) was “remained almost intact without decomposition for up to 8 weeks”. Also, the “cytotoxicity” value with HepG2.2.15 is on record as “about 7 m M”. For the same compound, the CC50 (in general, the concentration at which the toxic effect on the cells reaches its halfway point) at 8 days in data set [5] amounted to 6800 ± 2400 nM.

Turning to `CC(C)(C)C(=O)OCOP(=O)(COC1(Cn2cnc3cnc(N)nc32)CC1)OCOC(=O)C(C)(C)C.CS(=O)(=O)O` [Comparative Example 5, 3-[({1-[(2-amino-9H-purin-9-yl)methyl]cyclopropyl}oxy)methyl]-8,8-dimethyl-3,7-dioxo-2,4,6-trioxa-3λ5-phosphanon-1-yl-pivalate methanesulfonic acid monosalt], the residual content in data set [1] (Week 1) amounted to 50.7%; in data set [1] (Week 4) it was 0.0%; in data set [1] (Week 8), 0.0%.
